Experimental data reported in patent US20240374529A1, “PHARMACEUTICAL COMPOSITION COMPRISING POLYSACCHARIDE” (HUNG, MIEN-CHIE, priority 2021, published 2024).

Experiments:
Assay type in all cases: cell-based
MDA-MB-231 = test: Cytotoxicity, triple negative breast cancer cell line MDA-MB-231; settings: Homo sapiens
4T1 = test: Cytotoxicity, triple negative breast cancer cell line 4T1; settings: Mus musculus
CFPAC-1 = test: Cytotoxicity, pancreatic cancer cell line CFPAC-1; settings: Homo sapiens
BxPC3 = test: Cytotoxicity, pancreatic cancer cell line BxPC3; settings: Homo sapiens, BXPC-3
SKOV3 = test: Cytotoxicity, ovarian cancer cell line SKOV3; settings: Homo sapiens, SK-OV-3

`CC(=O)O[C@@]12CO[C@@H]1C[C@H](O)[C@@]1(C)C(=O)[C@H](O)C3=C(C)[C@@H](OC(=O)[C@H](O)[C@@H](NC(=O)OC(C)(C)C)c4ccccc4)C[C@@](O)([C@@H](OC(=O)c4ccccc4)[C@H]21)C3(C)C` [DTX, docetaxel] was tested, and the IC50 (MDA-MB-231) was 0.0187 µM, the IC50 (4T1) was 0.0291 µM and the IC50 (CFPAC-1) was 0.0388 µM. It also gave an IC50 (BxPC3) of 0.0229 µM and an IC50 (SKOV3) of 0.0101 µM.
